Measurements as given in patent US20190249215A1, “Three-Dimensional Cell-Derived Extracellular Matrix/Gel Systems” (Institute For Cancer Research d/b/a The Research Institute …, priority 2018, published 2019).

Tests used:
[1] = test system: RFP-expressing KRAS cell spheroids; test: Spheroid spreading assay; assay type: cell-based, human; conditions: KRAS spheroids within CAF-CDMs produced onto patho stiffness gels; 20 μM U0126 overnight
Experimental: Red fluorescence protein (RFP)-expressing KRAS cells generated in our laboratory were trypsinized and suspended in spheroid formation media (Irvine Scientific, Santa Ana, Calif., Catalog ID: 91130) and allowed to incubate overnight. Thirty μl drops containing 2.5×10^3 cells were carefully placed on a lid of a sterile petri dish. The dish was filled with 5 mL media and the lid with the “hanging drops” was carefully placed, drops face down, and incubated overnight. Spheroids were removed from the lids, one by one, placed onto the diverse substrates or CDMs, and allowed to adhere for 2 hours. Subsequently, the spheroid formation media was diluted with regular pancreatic epithelial growth media (see above). Following a 48-hour incubation, cell spreading was visualized using an inverted fluorescence microscope equipped with epifluorescent image acquisition capabilities. Data were normalized to the initial size of each spheroid at time 0 hour. When indicated, spheroids were treated overnight with 20 μM of the MEK1/2 inhibitor U0126 from Calbiochem or DMSO, while siRNA transfection. The images were processed using MetaMorph 7.8.1.0 software (Molecular Devices, Downingtown, Pa.). A minimum of 5 spheres per condition were analyzed in at least three independent experiments.

phospho-p90RSK = conditions: KRAS cells within CAF-CDMs produced onto patho gels; 20 μM U0126 overnight
Experimental: (§1) At the end of the experiments, KRAS cells were lysed with cell lysis buffer from Cell Signaling Technology (Danvers, Mass.) supplemented with Pierce™ Phosphatase and protease Inhibitor Mini Tablets (Cat Nos. 88667 and 88665, respectively) from Thermo Fisher Scientific (Waltham, Mass.). Proteins were SDS-PAGE dissolved and transferred to PVDF membranes. Blots were incubated with the following primary antibodies: Rabbit anti-human Phospho-p44/42 ERK1/2 (Thr^202/Tyr^204)(Cat No. 4370) and rabbit anti-human total-p44/42 ERK1/2 (Cat No. 9102) obtained from Cell Signaling Technology (Danvers, Mass.). Anti-phospho-p90RSK1 (Ser^380) (Cat No. 04-418) and anti-human glyceraldehyde 3-phosphate dehydrogenase (GAPDH) (Cat No. MAB374) obtained from Millipore (Billerica, Mass.). Horseradish peroxidase-conjugated, anti-species matched, secondary antibodies were obtained from Sigma Aldrich (St. Louis, Mo.). Protein bands were visualized using the Protein Simple FluorChemE System, (San Jose, Calif.). Nuclear levels of pERK1/2 were assessed using the Subcellular Protein Fractionation Kit (Thermo Scientific, Waltham, Mass.). Isolation of nuclear versus whole cell fractions was carried out according to the manufacturer's instructions.

pERK1/2 = conditions: KRAS cells within CAF-CDMs produced onto patho stiffness gels; 20 μM U0126 overnight; fractionated cell lysates
Experimental: as §1

N#CC(=C(N)Sc1ccccc1N)C(C#N)=C(N)Sc1ccccc1N [U0126, 1,4-diamino-2,3-dicyano-1,4-bis[2-aminophenylthio] butadiene]
KRAS spheroid area spread [1]: significant reduction in KRAS spheroid spread
phosphorylation levels of p90 ribosomal S6 kinase (pho-p90RSK) (phospho-p90RSK): downregulated
nuclear levels of pERK1/2 (pERK1/2): significant loss of pERK1/2 at nuclear locations
